The record followed here is patent publication US12630498B2 (Genzyme Corporation, priority 2019, dated 2026).

Assay [1] concerns the target T1, human Cystic Fibrosis Transmembrane Conductance Regulator (CFTR) harboring the ΔF508 mutation (Homo sapiens, UniProt P13569, DEL508-508).
T1 construct: expressed in transfected cells; host or cells: H441 carcinoma line (G418-selected)
The experiment in a line: H441 cell ΔF508-CFTR-HRP cell surface assay (Emax and EC50). In kind it is cell-based. As to conditions: for Emax: NCI-H441, NA = Not active. The method in brief: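 H441 and 41o- bronchial epithelial cells expressing ΔF508-CFTR with an extracellular-loop-4 HRP tag were treated with a 15-point compound series (24.5–0.001 μM) for two nights, H441 at 27° C, 41o- at 37° C with 0.0005 mg/ml doxycycline. Surface HRP luminescence read; % of maximum VX809 signal and EC50 derived.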

The target of assay [2] is T2, CFTR-mediated transepithelial chloride transport in primary human bronchial epithelial cells from a ΔF508 homozygous CF donor (Homo sapiens, UniProt P13569, DEL508-508).
T2 construct: Primary human bronchial epithelial cells from a ΔF508 homozygous CF donor; host or cells: primary CF-HBE cells, ΔF508 homozygous donor
T2 sequence (P13569 with tags, fused parts or gaps DEL508-508): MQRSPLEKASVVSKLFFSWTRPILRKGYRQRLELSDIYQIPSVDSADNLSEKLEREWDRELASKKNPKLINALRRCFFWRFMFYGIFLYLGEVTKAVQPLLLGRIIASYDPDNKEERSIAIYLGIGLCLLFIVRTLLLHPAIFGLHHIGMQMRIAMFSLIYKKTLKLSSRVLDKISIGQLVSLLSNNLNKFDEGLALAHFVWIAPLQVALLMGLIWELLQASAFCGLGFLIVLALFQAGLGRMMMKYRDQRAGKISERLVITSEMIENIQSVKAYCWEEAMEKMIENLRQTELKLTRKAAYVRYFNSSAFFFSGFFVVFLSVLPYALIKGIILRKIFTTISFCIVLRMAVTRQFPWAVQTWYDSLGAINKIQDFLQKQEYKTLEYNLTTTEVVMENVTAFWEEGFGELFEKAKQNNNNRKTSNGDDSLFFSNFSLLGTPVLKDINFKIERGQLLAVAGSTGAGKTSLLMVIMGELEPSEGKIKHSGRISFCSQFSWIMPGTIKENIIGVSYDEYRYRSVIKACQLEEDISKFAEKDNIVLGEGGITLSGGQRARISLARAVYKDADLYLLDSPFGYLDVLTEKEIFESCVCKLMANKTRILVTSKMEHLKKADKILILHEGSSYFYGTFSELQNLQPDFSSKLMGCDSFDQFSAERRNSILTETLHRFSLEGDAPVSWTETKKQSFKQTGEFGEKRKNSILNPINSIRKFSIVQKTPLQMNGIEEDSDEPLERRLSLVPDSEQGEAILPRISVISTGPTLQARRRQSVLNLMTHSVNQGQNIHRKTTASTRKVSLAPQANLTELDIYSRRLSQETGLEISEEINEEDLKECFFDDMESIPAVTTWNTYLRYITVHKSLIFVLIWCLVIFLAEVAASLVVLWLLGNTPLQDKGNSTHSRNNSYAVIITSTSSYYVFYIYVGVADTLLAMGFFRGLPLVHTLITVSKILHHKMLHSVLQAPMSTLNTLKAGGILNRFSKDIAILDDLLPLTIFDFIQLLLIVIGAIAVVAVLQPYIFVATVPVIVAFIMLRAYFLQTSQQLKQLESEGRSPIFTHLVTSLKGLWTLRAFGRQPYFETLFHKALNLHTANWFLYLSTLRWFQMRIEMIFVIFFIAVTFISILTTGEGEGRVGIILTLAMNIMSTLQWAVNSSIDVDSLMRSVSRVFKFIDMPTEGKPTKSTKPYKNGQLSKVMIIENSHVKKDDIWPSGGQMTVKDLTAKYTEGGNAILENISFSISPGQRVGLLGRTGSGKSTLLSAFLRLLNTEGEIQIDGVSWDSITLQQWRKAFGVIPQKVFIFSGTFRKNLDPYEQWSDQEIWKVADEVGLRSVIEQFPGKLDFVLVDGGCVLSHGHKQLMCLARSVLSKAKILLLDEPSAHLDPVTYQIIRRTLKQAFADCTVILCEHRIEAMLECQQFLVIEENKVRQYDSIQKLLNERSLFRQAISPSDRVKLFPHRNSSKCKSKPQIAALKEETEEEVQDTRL
The experiment in a line: TECC24 recording of CFTR-mediated transepithelial chloride transport in CF-HBE cells (AUC fold over DMSO). The note with it: test agent 10 μM, 48 hours incubation, AUC of forskolin-stimulated IEQ relative to DMSO. In kind it is cell-based. The procedure, abridged: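 Equivalent Cl⁻ current was derived from transepithelial voltage and resistance, and its AUC from forskolin (10 μM) to CFTRinh-172 (20 μM) was divided by the DMSO AUC. Benzamil 10 μM blocked ENaC. Cells were ΔF508-homozygous primary bronchial epithelia pretreated 48 h at 36.5 °C in IL-13 medium.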

T1 sequence (P13569 with tags, fused parts or gaps DEL508-508): as above

`O=C(N[C@@H](Cc1ccc(C(F)(F)F)cc1)C(=O)O)c1ccc2ccccc2c1OCc1ccc(C(F)(F)F)cc1` [Example 104, (S)-2-(1-((4-(trifluoromethyl)benzyl)oxy)-2-naphthamido)-3-(4-(trifluoromethyl)phenyl)propanoic Acid]: in assay [1], the response was half-maximal at 7700 nM (EC50) and the maximum response (Emax) came to 77.8%. Also, the “TECC24 AUC fold over DMSO @10 μM” value in assay [2] was “C (“C” refers to AUC @10 uM <4)”.

In assay [1], `O=C(N[C@@H](Cc1ccc2c(c1)OCO2)C(=O)O)c1ccc2ccccc2c1OCc1ccc(C(F)(F)F)cc1` [Example 106, (S)-3-(benzo[d][1,3]dioxol-5-yl)-2-(1-((4-(trifluoromethyl)benzyl)oxy)-2-naphthamido)propanoic Acid] showed an EC50 of 10400 nM and a maximal effect (Emax) of 82.1%. The “TECC24 AUC fold over DMSO @10 μM” value in assay [2] was “C (“C” refers to AUC @10 uM <4)”.

In the case of `CC(C)(C)C[C@H](NC(=O)c1ccc2ccccc2c1OCc1ccc(S(F)(F)(F)(F)F)cc1)C(=O)O` [Example 110, (S)-4,4-dimethyl-2-(1-((4-(pentafluoro-16-sulfanyl)benzyl)oxy)-2-naphthamido)pentanoic Acid], in assay [1], the EC50 is 2100 nM and the Emax is 83.1%. Besides, in assay [2], the “TECC24 AUC fold over DMSO @10 μM” value was “B (“B” refers to AUC @10 uM between 4-6)”.

Turning to `O=C(N[C@H](C(=O)O)C1CCCC1)c1ccc2ccccc2c1OCc1ccc(S(F)(F)(F)(F)F)cc1` [Example 111, (S)-2-cyclopentyl-2-(1-((4-(pentafluoro-16-sulfanyl)benzyl)oxy)-2-naphthamido)acetic Acid], in assay [1], the response was half-maximal at 2300 nM (EC50) and the maximal response (Emax) is 93.1%. Also, in assay [2], the “TECC24 AUC fold over DMSO @10 μM” value was “B (“B” refers to AUC @10 uM between 4-6)”.

In assay [1], `O=C(N[C@H](C(=O)O)C1CCCC1)c1ccc2ccccc2c1OCc1ccc(SC(F)(F)F)cc1` [Example 114, (S)-2-cyclopentyl-2-(1-((4-((trifluoromethyl)thio)benzyl)oxy)-2-naphthamido)acetic Acid] had an EC50 of 2600 nM and an Emax of 86.1%. In addition, the “TECC24 AUC fold over DMSO @10 μM” value in assay [2] is recorded as “C (“C” refers to AUC @10 uM <4)”.

With `CC(C)(C)C[C@H](NC(=O)c1ccc2ccccc2c1OCc1ccc(SC(F)(F)F)cc1)C(=O)O` [Example 115, (S)-4,4-dimethyl-2-(1-((4-((trifluoromethyl)thio)benzyl)oxy)-2-naphthamido)pentanoic Acid], in assay [1], the EC50 was 1100 nM and the maximum response (Emax) turned out to be 84%. Further, the “TECC24 AUC fold over DMSO @10 μM” value in assay [2] is “C (“C” refers to AUC @10 uM <4)”.

In assay [1], `O=C(N[C@H](C(=O)O)C1CCCC1)c1ccc2cc(F)ccc2c1OCc1ccc(SC(F)(F)F)cc1` [Example 116, (S)-2-cyclopentyl-2-(6-fluoro-1-((4-((trifluoromethyl)thio)benzyl)oxy)-2-naphthamido)acetic Acid] gave a concentration giving a half-maximal response (EC50) of 1200 nM and an Emax of 51.4%. In addition, the “TECC24 AUC fold over DMSO @10 μM” value in assay [2] is given as “C (“C” refers to AUC @10 uM <4)”.

In assay [1], `O=C(N[C@H](C(=O)O)C1CCCC1)c1ccc2cc(F)ccc2c1OCc1ccc(OC(F)(F)F)cc1` [Example 119, (S)-2-cyclopentyl-2-(6-fluoro-1-((4-(trifluoromethoxy)benzyl)oxy)-2-naphthamido)acetic Acid] displayed an EC50 of 800 nM and an Emax of 37.1%. In assay [2], the “TECC24 AUC fold over DMSO @10 μM” value is given as “A (“A” refers to AUC @10 uM >6)”.

In assay [1], `O=C(N[C@H](C(=O)O)C(c1ccccc1)c1ccccc1)c1ccc2ccccc2c1OCc1ccc(C(F)(F)F)cc1` [Example 126, (S)-3,3-diphenyl-2-(1-((4-(trifluoromethyl)benzyl)oxy)-2-naphthamido)propanoic Acid] came in with an EC50 of 100 nM and a maximal response (Emax) of 214%. The “TECC24 AUC fold over DMSO @10 μM” value in assay [2] was “B (“B” refers to AUC @10 uM between 4-6)”.

In assay [1], `CC(c1ccccc1)C(NC(=O)c1ccc2ccccc2c1OCc1ccc(C(F)(F)F)cc1)C(=O)O` (stereo not drawn) [Example 127, 3-phenyl-2-(1-((4-(trifluoromethyl)benzyl)oxy)-2-naphthamido)butanoic Acid] showed an EC50 of 1100 nM and a maximal response (Emax) of 98.5%. Moreover, in assay [2], the “TECC24 AUC fold over DMSO @10 μM” value was “C (“C” refers to AUC @10 uM <4)”.

Turning to `O=C(N[C@H](C(=O)O)C1CCCCC1)c1ccc2ccccc2c1OCc1ccc(C(F)(F)F)cc1` [Example 128, (S)-2-cyclohexyl-2-(1-((4-(trifluoromethyl)benzyl)oxy)-2-naphthamido)acetic Acid], in assay [1], the EC50 came to 500 nM and the Emax amounted to 158%. In assay [2], the “TECC24 AUC fold over DMSO @10 μM” value is listed as “A (“A” refers to AUC @10 uM >6)”.

In assay [1], `O=C(N[C@H](C(=O)O)[C@H](O)c1ccccc1)c1ccc2ccccc2c1OCc1ccc(C(F)(F)F)cc1` [Example 129, (2S,3R)-3-hydroxy-3-phenyl-2-(1-((4-(trifluoromethyl)benzyl)oxy)-2-naphthamido)propanoic Acid] yielded an EC50 of 12000 nM and a maximal response (Emax) of 29.4%. Further, in assay [2], the “TECC24 AUC fold over DMSO @10 μM” value is reported as “C (“C” refers to AUC @10 uM <4)”.

Regarding `O=C(N[C@H](C(=O)O)C(c1ccccc1)c1ccccc1)c1ccc2ccccc2c1OCc1ccc(C(F)(F)F)c(F)c1` [Example 130, (S)-2-(1-((3-fluoro-4-(trifluoromethyl)benzyl)oxy)-2-naphthamido)-3,3-diphenylpropanoic Acid], in assay [1], the EC50 was determined as 200 nM and the Emax was found to be 196%. The “TECC24 AUC fold over DMSO @10 μM” value in assay [2] is reported as “C (“C” refers to AUC @10 uM <4)”.

On to `O=C(N[C@H](C(=O)O)C(c1ccccc1)c1ccccc1)c1ccc2ccccc2c1OCc1ccc(C(F)(F)C(F)(F)F)cc1` [Example 131, (S)-2-(1-((4-(perfluoroethyl)benzyl)oxy)-2-naphthamido)-3,3-diphenylpropanoic Acid], for which, in assay [1], the EC50 came out at 100 nM and the Emax was 204%. In assay [2], the “TECC24 AUC fold over DMSO @10 μM” value was “C (“C” refers to AUC @10 uM <4)”.

In assay [1], `C[C@@H](OC(C)(C)C)C(NC(=O)c1ccc2ccccc2c1OCc1ccc(C(F)(F)F)cc1)C(=O)O` (stereo partly drawn) [Example 133, (3R)-3-(tert-butoxy)-2-(1-((4-(trifluoromethyl)benzyl)oxy)-2-naphthamido)butanoic Acid] displayed an EC50 of 1200 nM and a maximal effect (Emax) of 151%. The “TECC24 AUC fold over DMSO @10 μM” value in assay [2] is on record as “A (“A” refers to AUC @10 uM >6)”.

Take `C[C@H](OC(C)(C)C)C(NC(=O)c1ccc2ccccc2c1OCc1ccc(C(F)(F)F)cc1)C(=O)O` (stereo partly drawn) [Example 134, (3S)-3-(tert-butoxy)-2-(1-((4-(trifluoromethyl)benzyl)oxy)-2-naphthamido)butanoic Acid]: in assay [1], a half-maximal response (EC50) required 1000 nM and the maximum response (Emax) was 84.9%. In assay [2], the “TECC24 AUC fold over DMSO @10 μM” value was “C (“C” refers to AUC @10 uM <4)”.

In assay [1], `O=C(N[C@@H](Cc1ccco1)C(=O)O)c1ccc2ccccc2c1OCc1ccc(C(F)(F)F)cc1` [Example 136, (S)-3-(furan-2-yl)-2-(1-((4-(trifluoromethyl)benzyl)oxy)-2-naphthamido)propanoic Acid] showed an EC50 of 8100 nM and a maximal response (Emax) of 73.6%. Moreover, the “TECC24 AUC fold over DMSO @10 μM” value in assay [2] was “C (“C” refers to AUC @10 uM <4)”.

In assay [1], `COC(C)(C)[C@H](NC(=O)c1ccc2ccccc2c1OCc1ccc(C(F)(F)F)cc1)C(=O)O` [Example 139, (S)-3-methoxy-3-methyl-2-(1-((4-(trifluoromethyl)benzyl)oxy)-2-naphthamido)butanoic Acid] gave an EC50 of 1400 nM and a maximal effect (Emax) of 118%. Moreover, the “TECC24 AUC fold over DMSO @10 μM” value in assay [2] is listed as “C (“C” refers to AUC @10 uM <4)”.
